Test results published in patent US12479847B2 (DANA-FARBER CANCER INSTITUTE, INC., priority 2019, dated 2025).

Tests used:
Assay in all cases: KINOMEscan (ScanMAX) kinase profiling
Assay type in all cases: binding
[1] = biological target: T1, panel of 468 kinases (Homo sapiens, UniProt Q9NRP7); settings: STK36; 1 μM; read-out: % control
T1 construct: purchased KINOMEscan (ScanMAX) service
T1 sequence (Q9NRP7 1-1315): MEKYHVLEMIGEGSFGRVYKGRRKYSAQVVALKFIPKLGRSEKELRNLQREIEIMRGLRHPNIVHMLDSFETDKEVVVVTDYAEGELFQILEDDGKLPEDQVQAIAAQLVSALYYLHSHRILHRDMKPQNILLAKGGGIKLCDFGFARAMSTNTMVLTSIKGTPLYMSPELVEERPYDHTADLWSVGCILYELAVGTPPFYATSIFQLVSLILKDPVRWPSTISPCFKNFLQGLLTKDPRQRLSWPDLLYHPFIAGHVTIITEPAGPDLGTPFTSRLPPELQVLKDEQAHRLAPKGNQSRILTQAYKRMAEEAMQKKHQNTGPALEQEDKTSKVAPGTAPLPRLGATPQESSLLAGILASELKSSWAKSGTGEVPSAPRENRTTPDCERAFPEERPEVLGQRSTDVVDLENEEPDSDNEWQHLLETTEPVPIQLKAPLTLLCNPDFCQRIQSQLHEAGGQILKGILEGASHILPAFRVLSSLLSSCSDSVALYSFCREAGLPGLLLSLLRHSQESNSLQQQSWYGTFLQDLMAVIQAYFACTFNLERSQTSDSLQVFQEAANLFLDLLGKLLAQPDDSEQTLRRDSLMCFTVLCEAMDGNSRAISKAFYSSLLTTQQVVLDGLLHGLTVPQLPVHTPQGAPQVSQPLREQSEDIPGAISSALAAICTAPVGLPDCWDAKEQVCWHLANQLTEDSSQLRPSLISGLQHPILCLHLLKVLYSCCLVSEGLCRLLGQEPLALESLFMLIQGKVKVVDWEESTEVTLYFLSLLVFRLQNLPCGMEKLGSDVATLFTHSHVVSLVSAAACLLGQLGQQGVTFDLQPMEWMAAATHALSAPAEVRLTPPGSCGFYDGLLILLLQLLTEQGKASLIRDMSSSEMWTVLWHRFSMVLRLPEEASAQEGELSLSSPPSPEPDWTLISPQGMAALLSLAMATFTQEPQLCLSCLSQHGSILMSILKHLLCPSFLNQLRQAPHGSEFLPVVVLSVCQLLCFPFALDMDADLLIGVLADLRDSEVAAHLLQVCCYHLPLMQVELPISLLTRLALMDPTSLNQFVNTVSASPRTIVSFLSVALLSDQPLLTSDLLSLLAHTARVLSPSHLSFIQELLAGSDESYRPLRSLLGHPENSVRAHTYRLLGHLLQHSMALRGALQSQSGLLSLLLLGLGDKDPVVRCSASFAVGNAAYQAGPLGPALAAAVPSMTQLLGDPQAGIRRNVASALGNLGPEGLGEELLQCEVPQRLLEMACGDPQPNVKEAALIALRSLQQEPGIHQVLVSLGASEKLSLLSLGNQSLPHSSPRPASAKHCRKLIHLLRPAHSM

[2] = biological target: T2, panel of 468 kinases (Homo sapiens, UniProt P49841); settings: GSK3B; 1 μM; read-out: % control
T2 construct: purchased KINOMEscan (ScanMAX) service

[3] = biological target: T3, panel of 468 kinases (Homo sapiens, UniProt P07949); settings: RET; 1 μM; read-out: % control
T3 construct: purchased KINOMEscan (ScanMAX) service

[4] = biological target: T4, panel of 468 kinases (Homo sapiens, UniProt P00533, DEL752-759); settings: EGFR(S752-I759del); 1 μM; read-out: % control
T4 construct: purchased KINOMEscan (ScanMAX) service

[5] = biological target: T5, panel of 468 kinases (Homo sapiens, UniProt P17612); settings: PKAC-alpha; 1 μM; read-out: % control
T5 construct: purchased KINOMEscan (ScanMAX) service

[6] = biological target: T6, panel of 468 kinases (Homo sapiens, UniProt Q15759); settings: p38-beta; 1 μM; read-out: % control
T6 construct: purchased KINOMEscan (ScanMAX) service

[7] = biological target: T7, panel of 468 kinases (Homo sapiens, UniProt P29376); settings: LTK; 1 μM; read-out: % control
T7 construct: purchased KINOMEscan (ScanMAX) service

[8] = biological target: T8, panel of 468 kinases (Homo sapiens, UniProt Q16832); settings: DDR2; 1 μM; read-out: % control
T8 construct: purchased KINOMEscan (ScanMAX) service
T8 sequence (Q16832 22-855): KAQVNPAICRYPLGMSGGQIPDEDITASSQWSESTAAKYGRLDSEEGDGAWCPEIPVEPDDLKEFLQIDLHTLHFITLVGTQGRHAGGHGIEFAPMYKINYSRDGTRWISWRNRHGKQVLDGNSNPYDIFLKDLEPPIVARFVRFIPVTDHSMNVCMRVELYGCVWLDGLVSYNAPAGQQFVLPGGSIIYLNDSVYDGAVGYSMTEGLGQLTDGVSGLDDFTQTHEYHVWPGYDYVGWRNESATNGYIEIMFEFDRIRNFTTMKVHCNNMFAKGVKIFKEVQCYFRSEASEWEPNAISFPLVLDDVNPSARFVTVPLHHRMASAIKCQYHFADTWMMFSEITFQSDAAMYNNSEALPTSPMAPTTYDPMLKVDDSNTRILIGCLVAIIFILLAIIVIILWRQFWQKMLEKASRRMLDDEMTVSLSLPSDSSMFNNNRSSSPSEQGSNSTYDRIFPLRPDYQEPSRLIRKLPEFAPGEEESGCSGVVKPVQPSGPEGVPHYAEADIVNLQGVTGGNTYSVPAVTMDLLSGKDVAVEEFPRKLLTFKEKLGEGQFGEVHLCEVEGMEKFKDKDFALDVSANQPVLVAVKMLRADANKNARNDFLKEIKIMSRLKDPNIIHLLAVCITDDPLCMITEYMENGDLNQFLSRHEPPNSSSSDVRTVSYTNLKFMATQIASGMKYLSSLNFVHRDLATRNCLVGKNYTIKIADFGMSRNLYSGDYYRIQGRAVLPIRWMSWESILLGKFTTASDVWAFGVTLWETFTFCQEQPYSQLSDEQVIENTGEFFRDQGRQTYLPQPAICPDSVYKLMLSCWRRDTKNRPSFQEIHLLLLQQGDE

T2 sequence (P49841 whole entry): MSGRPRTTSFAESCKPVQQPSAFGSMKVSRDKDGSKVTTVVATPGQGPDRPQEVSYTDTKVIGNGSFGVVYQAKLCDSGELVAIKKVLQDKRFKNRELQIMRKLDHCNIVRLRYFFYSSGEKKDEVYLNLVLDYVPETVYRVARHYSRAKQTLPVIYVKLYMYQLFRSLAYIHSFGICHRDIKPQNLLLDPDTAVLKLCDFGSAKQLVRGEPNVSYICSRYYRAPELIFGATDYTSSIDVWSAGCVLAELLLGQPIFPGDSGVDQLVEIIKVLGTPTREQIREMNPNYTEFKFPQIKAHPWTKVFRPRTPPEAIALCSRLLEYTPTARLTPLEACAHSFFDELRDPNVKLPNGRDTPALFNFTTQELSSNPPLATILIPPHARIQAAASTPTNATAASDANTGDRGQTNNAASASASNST
T6 sequence (Q15759 whole entry): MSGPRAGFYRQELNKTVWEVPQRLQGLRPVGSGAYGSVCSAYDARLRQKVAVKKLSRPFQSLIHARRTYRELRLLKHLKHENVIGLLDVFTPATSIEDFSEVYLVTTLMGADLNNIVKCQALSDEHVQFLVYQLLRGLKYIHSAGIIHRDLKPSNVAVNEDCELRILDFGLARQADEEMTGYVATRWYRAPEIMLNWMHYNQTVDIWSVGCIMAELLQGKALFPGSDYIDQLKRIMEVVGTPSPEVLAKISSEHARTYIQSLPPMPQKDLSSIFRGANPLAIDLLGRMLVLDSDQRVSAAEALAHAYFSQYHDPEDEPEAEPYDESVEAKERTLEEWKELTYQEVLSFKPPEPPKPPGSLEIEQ
T7 sequence (P29376 17-864): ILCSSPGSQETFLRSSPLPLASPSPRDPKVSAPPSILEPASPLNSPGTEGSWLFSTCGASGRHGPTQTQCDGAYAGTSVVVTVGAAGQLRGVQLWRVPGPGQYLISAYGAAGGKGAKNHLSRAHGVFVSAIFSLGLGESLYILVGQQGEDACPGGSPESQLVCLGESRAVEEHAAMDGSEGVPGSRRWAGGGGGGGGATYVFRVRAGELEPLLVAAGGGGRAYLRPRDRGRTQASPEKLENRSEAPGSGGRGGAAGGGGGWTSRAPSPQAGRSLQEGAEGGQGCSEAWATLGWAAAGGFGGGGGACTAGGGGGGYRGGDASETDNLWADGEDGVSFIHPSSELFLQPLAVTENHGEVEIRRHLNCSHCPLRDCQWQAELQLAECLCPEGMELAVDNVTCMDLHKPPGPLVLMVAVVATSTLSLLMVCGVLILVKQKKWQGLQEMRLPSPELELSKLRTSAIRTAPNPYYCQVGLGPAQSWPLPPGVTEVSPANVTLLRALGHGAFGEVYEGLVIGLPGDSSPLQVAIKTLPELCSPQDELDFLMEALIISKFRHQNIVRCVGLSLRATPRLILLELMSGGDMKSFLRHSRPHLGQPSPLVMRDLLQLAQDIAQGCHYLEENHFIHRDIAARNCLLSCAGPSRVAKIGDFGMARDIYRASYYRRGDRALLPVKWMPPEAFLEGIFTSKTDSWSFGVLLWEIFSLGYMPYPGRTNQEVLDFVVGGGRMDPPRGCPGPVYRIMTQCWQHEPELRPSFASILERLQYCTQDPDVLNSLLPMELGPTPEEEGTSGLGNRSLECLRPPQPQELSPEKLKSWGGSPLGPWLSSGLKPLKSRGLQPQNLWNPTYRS
T4 sequence (P00533 with tags, fused parts or gaps DEL752-759): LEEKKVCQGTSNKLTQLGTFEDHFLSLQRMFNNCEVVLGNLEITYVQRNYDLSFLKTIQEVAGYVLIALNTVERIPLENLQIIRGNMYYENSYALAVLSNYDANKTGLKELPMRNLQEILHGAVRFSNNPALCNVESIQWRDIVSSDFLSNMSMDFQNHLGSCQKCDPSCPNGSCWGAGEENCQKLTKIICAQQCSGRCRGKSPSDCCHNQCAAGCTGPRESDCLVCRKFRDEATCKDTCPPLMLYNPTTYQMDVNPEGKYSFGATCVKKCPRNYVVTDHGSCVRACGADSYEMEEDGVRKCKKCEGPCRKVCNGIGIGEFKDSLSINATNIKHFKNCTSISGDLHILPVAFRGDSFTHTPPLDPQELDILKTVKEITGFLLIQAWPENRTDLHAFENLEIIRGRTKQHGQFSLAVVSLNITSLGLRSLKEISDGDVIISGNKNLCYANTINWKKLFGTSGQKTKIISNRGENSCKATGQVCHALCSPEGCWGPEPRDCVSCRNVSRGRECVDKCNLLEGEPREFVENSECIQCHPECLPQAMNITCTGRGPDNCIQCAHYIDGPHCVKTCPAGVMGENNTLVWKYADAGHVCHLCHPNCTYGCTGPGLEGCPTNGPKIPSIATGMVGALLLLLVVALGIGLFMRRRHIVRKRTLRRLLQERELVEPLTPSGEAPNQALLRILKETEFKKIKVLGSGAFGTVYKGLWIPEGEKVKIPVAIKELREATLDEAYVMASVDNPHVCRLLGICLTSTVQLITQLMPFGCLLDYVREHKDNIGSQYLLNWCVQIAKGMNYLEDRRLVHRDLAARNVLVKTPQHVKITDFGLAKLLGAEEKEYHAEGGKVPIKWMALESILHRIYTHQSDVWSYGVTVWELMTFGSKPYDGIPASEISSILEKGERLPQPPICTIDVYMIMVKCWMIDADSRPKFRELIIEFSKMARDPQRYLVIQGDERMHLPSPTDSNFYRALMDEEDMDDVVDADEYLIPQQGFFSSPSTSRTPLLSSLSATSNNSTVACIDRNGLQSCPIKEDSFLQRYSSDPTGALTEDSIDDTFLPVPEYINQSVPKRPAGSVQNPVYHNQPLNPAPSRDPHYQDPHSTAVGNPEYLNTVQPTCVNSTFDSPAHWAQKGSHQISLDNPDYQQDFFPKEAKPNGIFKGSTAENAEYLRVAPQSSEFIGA
T3 sequence (P07949 29-1114): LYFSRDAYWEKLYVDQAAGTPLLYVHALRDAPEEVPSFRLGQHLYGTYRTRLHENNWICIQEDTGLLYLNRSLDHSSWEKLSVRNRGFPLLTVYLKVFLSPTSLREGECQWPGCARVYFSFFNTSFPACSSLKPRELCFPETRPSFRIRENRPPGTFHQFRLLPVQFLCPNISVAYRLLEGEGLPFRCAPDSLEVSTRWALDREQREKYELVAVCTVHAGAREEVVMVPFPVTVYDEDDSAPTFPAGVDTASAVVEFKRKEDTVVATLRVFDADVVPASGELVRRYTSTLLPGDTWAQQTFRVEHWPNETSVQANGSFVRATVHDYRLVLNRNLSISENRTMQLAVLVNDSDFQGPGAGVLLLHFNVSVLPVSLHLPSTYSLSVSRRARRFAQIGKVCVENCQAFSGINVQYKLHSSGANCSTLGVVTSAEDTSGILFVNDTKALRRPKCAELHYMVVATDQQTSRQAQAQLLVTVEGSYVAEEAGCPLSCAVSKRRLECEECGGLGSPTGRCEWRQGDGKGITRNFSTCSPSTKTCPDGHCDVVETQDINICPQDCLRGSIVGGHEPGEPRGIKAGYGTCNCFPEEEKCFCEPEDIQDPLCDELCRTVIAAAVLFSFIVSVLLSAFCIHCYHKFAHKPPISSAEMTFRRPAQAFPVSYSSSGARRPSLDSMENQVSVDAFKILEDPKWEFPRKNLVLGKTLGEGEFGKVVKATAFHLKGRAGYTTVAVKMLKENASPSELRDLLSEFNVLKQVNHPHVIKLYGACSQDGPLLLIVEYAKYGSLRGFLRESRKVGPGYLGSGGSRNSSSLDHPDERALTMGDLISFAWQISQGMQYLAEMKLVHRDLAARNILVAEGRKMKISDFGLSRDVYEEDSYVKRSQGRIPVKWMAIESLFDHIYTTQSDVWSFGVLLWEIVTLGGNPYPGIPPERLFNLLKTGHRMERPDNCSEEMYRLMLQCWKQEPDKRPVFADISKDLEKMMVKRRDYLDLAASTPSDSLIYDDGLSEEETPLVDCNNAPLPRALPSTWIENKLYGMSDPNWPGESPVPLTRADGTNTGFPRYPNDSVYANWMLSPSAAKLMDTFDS

| SMILES | remaining binding at 1 µM [1] | remaining binding at 1 µM [2] | remaining binding at 1 µM [3] | remaining binding at 1 µM [4] | remaining binding at 1 µM [5] | remaining binding at 1 µM [6] | remaining binding at 1 µM [7] | remaining binding at 1 µM [8] |
| --- | --- | --- | --- | --- | --- | --- | --- | --- |
| CNc1nc(Nc2ccc(C(=O)N3CCC(N4CCOCC4)CC3)c3c2OCO3)nc2[nH]cc(Cl)c12 [Compound 75, (7-((5-chloro-4-(methylamino)-7H-pyrrolo[2,3-d]pyrimidin-2-yl)amino)benzo[d][1,3]dioxol-4-yl)(4-morpholinopiperidin-1-yl)methanone] | 100% | 97% | 100% | 94% | 100% | 100% | 19% | 93% |
| CNc1nc(Nc2ccc(S(=O)(=O)N3CCC(N4CCOCC4)CC3)cc2OC)nc2[nH]cc(Cl)c12 [Compound 12, 5-chloro-N2-(2-methoxy-4-((4-morpholinopiperidin-1-yl)sulfonyl)phenyl)-N4-methyl-7H-pyrrolo[2,3-d]pyrimidine-2,4-diamine] | 100% | 96% | 100% | 100% | 100% | 100% | 22% | 84% |
| CNc1nc(Nc2ccc(P3(=O)CCN(C4CCOCC4)CC3)cc2OC)nc2[nH]cc(Cl)c12 [Compound 77, 4-(4-((5-chloro-4-(methylamino)-7H-pyrrolo[2,3-d]pyrimidin-2-yl)amino)-3-methoxyphenyl)-1-(tetrahydro-2H-pyran-4-yl)-1,4-azaphosphinane 4-oxide] | 100% | 100% | 100% | 100% | 100% | 100% | 21% | 84% |
